Assay results published in patent publication US11840913B2, “Methods for stimulation of hydrocarbon-bearing formations while inhibiting corrosion of metal surfaces contacted by acid solutions used in stimulation” (Fluid Energy Group Ltd., priority 2019, dated 2023).

Columns and labels:
[1] = Corrosion testing of 316 steel coupons in acidic fluids with corrosion inhibitors
Excerpt: Corrosion inhibitor compositions according to preferred embodiments of the present invention were exposed to corrosion testing. Various steel grades (stainless steel and carbon steel) were subjected to acid compositions comprising corrosion inhibitors according to the present invention against known corrosion inhibitors to the listed compositions for various periods of time at varying temperatures. A desirable corrosion inhibition result was one where the lb/ft^2 corrosion number is at or below 0.05. More preferably, that number is at or below 0.02.
33% HCl:MEA in a 5.5:1 ratio and 50% HCl:MEA in a 5.5:1 ratio indicate the volume amount of the original concentration of a stock solution containing HCl and monoethanolamine in a ratio of 5.5:1. The HCl loading of a 33% HCl:MEA in a 5.5:1 ratio is approximately 6.5% HCl. The HCl loading of 50% HCl:MEA in a 5.5:1 ratio is approximately 10% HCl.

[2] = Visual corrosion testing on grease-coated wireline (Example 7); details: MEA-HCl 1:4.1 molar ratio at 33% dilution in water; 48 hours; 60° C.
Protocol: A visual corrosion testing was carried out on wireline using three different coatings.
It is worth noting that the acid strength was the same in all three samples and the acidic composition only differed between the first two samples and the last sample with the presence of component B2.

Structure (SMILES) | film forming, protection of the stainless steel ([1]; 90° C. to 110° C.) | prevention of pitting ([1]; higher temperatures (even 110° C. to 120° C.)) | visual inspection of wireline wire sheathing after acid exposure [2]
O=CC=Cc1ccccc1 [ZA, cinnamaldehyde] | effective film former |  | 
CC(C)=CCCC(C)=CC=O (racemic) [citral, (±)-3,7-Dimethyl-2,6-octadienal] |  | some effectiveness | completely stripped of its wire sheathing
